Results taken from US7514257B2, “Zinc finger transcription factor differentiation proteins” (ToolGen, Inc., priority 2001, dated 2009).
Where “and” joins values, the source holds several entries; their conditions need not be identical. Equal entries are not always repeated.

Tests used:
[1] = tested on: transcripts of human embryonic kidney 293 cells; test: Transcript profiling of 293 cells expressing F121_p65; type: cell-based
Method: DNA microarrays containing 7458 human EST clones were obtained from Genomictree (Korea). FlpTRex-293 cells stably expressing ZFP-TFs were grown with (+Dox) or without Dox) 1 μg/ml Doxycycline for 48 hours. Total RNA was prepared from each sample. RNA from the −Dox sample was used as a reference (Cy3), and +Dox as the experimental sample (Cy5). Microarray analysis was performed according to the manufacturer's protocols. Spots with sum of median less than 500 were colored red and not analyzed.
The zinc finger protein F121_p65 was expressed in human embryonic kidney 293 cells. […] F121_p65 increases transcription of insulin-like growth factor 2, among other genes.

[2] = tested on: 293 cells; test: Cell growth of transfected 293 cells (cell count confirming MTT assay); type: cell-based, human; conditions: for relative cell number, average: three days after transfection, relative to parental vector
Method: MTT assay is used to measure cell growth. Tetrazolium MTT reduced by metabolically active cells […] color indicates the number of viable cells. MTT assay was done using a MTT assay kit (Trevigen). The MTT assay was done at three days after transfection. Briefly, 10 μl of MTT solution was added directly to the culture medium and incubated for two hours in a CO2 incubator. Then, 100 μl of detergent solution from the MTT assay kit was added and incubated in the dark for two hours before measurement of absorbance at 570 nm was measured using a Power-Wave 340× (Bio-Tek Instrument).
To count cell numbers, 293 cells were seeded at 1.5·10^4 cells/well in a 24 well plate one day before transfection. Three days after transfection with 200 ng of ZFP-coding nucleic acid or control vector plasmids, cells were washed with PBS once and suspended in 30 ul of TE (10 mM Tris 1 mM EDTA, pH 8.0) buffer and counted by hematocytometery.
To confirm the MTT assay, the cell numbers were counted after transfection of K_D10 and K_F02 in 293 cells. The result was compared to the cell number of the well transfected with the parental vector, converted to relative percentages and shown in Table 13. […] The P values for K_D10 and K_F02 are 0.001 and 0.01, respectively. For sequence information, see FIGS. 18 and 19.

[3] = tested on: SV40-SEAP reporter (pSEAP2-control); test: SEAP assay, SV40-SEAP reporter in 293 cells; type: cell-based, human
Method: Human embryonic kidney 293 cells were cultured with 100 μl of DMEM with 10% of FBS in a humidified atmosphere containing 95% air and 5% CO2 and seeded in wells of a 96 well plates 1 day ahead of transfection. The plasmids were isolated from individual colonies of each library separately and transfected into 293 cells LIPOFECTAMINE PLUS™ (Invitrogen) as recommended by the manufacturer. For MTT assay, 50 ng of plasmids containing zinc finger protein gene fused to the functional domains were transfected into cells cultured at 5·10^3 cells/well. For the SEAP assay, 10 ng of pSEAP2-control (Clontech) plasmid was co-transfected with 50 ng of plasmids containing zinc finger protein gene fused to the functional domains into cells cultured at 1·10^4 cells/well. The transfected cells were incubated at 37° C. for three days before assays.
(§1) Three days after transfection, medium was transferred to the new tubes and heated for 30 minutes at 65° C. to inactivate the endogenous alkaline phosphatase. 25 μl of medium was mixed with the same volume of 2×SEAP assay buffer (2 M Diethanolamine (pH 9.8) 10 ml, 1 M MgCl2 10 μl, 1 M homoarginine 200 μl, pNitro phenyl phosphate 44.52 mg). Absorbance at 405 nm was measured after the indicated incubation times at 37° C.
We tested whether library nucleic acids could alter expression of a heterologous nucleic acid. SEAP (secretory alkaline phosphatase) was used as a reporter protein to test whether a ZFP can affect amount of foreign protein produced intracellularly.

[4] = tested on: mouse neuroblastoma Neuro2a cells; test: Neurite formation in Neuro2A cells; type: cell-based
Method: Mouse neuroblastoma Neuro2a cells were maintained in MEM-a media with 10% FBS and antibiotics at 37° C., in a humidified atmosphere containing 95% air and 5% CO2. Cells were seeded at 8.0·10^3 cells per 96-well culture plate and then were transfected using LIPOFECTAMINE PLUS™ reagent (Invitrogen,CA) according to the manufacturer's protocol, with 50 ng of ZFP, together with 20 ng of LacZ reporter plasmid. In vitro differentiation was carried out with or without retinoic acid (RA) (10 μM) respectively, and G418 (1 mg/ml) was treated 24 hours after transfection to reduce the number of untransfected cells. Cells were then cultured for 96 hours and then fixed, stained for β-galactosidase activity, and photographed. Among β-galactosidase-positive cells, cells were regarded as differentiated if the length of neurite extension was at least two times the diameter of the cell body.
To screen for ZFP-TFs that can induce neuronal differentiation, Neuro2A cells were transiently transfected with library plasmids and a reporter plasmid that includes the LacZ gene. LacZ expression was used to visualize the morphology of transfected cells. Because the differentiating cells grow slower than non-differentiating cells and the latter will dominate the cell population, we treated the cell culture with G418 24 hr after transfection to reduce the number of untransfected cells. After five days, cells were fixed and LacZ-stained. We then characterized the cells by their morphological characteristics. In particular, we identified cells with increased neurite length and thickness.

[5] = tested on: C2C12 myoblasts; test: ALP staining for transdifferentiation of C2C12 myoblasts to osteoblasts; type: cell-based, mouse; conditions: absence of BMP-2, seven days after transfection
Text: We screened for chimeric zinc finger proteins that induce transdifferentiation of C2C12 myoblasts to osteoblasts in the absence of BMP-2. We transiently transfected a nucleic acid library encoding chimeric zinc finger proteins into C2C12 cells and screened for cells that undergo transdifferentiation in the absence of BMP-2. Seven days after transfection, the transformed cells were stained for alkaline phosphatase (ALP), a marker for osteoblasts (Katagiri, T. et al., (1994) J. Cell. Biol. 127:1755).
For these experiments, the mouse myoblast cell line, C2C12, was maintained in Dulbecco's Modified Eagle's Medium (DMEM) with 4.5 g/L glucose, 10% FBS, and antibiotics, at 37° C., in a humidified atmosphere containing 95% air and 5% CO2. Cells were seeded at 1.0·10^4 cells per 96-well culture plates. […] Twenty-four hours after transfection, the growth medium was replaced with DMEM containing 2% FBS, and the cells were cultured for an additional six days.
To examine the differentiation of C2C12 cells to osteoblasts, ALP staining was performed as described in Katagiri, T. et al., (1994) J. Cell.

[6] = tested on: yeast strain YPH499a; test: Ketoconazole resistance of yeast transformants; type: cell-based, Saccharomyces cerevisiae; conditions: 10^7 cells plated on synthetic media
Method: To check the fungistatic response of the tester strain YPH499a to ketoconazole, 10^7 cells of the YPH499a strain were plated onto synthetic media containing different concentrations of the drug.
1×10^7 yeast cells containing plasmids from the 3-finger and 4-finger libraries were cultivated in synthetic liquid medium with 2% galactose for 3 hours at 30° C. to induce zinc finger protein expression and then were plated onto synthetic galactose agar plates containing 35 μM ketoconazole (ICN Biomedicals). After fours days of incubation at 30° C., about 120 clones formed colonies on galactose media containing 35 μM ketoconazole. These ketoconazole resistant yeast colonies were picked and streaked on fresh synthetic galactose agar plates containing 35 μM ketoconazole. 23 clones were randomly selected from the 120 resistant clones. For each of these 23 clones, the resistant phenotype was verified by plasmid rescue. […]
In one experiment, 5×10^4 cells from each transformant were serially diluted (10^−1, 10^−2, and 10^−3 fold) and spotted on galactose or glucose media supplemented without or with 35 μM ketoconazole. Growth of the cells was monitored after four days at 30° C. and compared to controls on the same plate. […]

[7] = tested on: CMV-SEAP reporter; test: CMV-SEAP reporter in 293F cells; type: cell-based, human; conditions: for CMV-SEAP, average: Vector (HANLS) = 1
Method: as §1
(§2) To investigate this point, an extensive screening had been carried out using the SEAP reporter under the control of CMV promoter (CMV-SEAP) in 293F cells. Two ZFPs, K44—11_D01 and K44—11_G12, that increase activity of the SEAP protein were isolated. These two ZFPs were further tested using two other reporter plasmids, SV40-SEAP and the luciferase reporter under the control of CMV promoter (CMV-Luc). […] Thus, K44—11_G12 may be used increase the production of proteins generally in cells, e.g., eukaryotic cells.

[8] = tested on: CMV-Luc reporter; test: CMV-Luc reporter in 293F cells; type: cell-based, human; conditions: for CMV-Luc, average: Vector (HANLS) = 1
Method: For the luciferase assay, 5 ng of both CMV-luciferase and pRL-SV40 plasmid were co-transfected with 50 ng of ZFP coding plasmids to 293 cells seeded in wells of a 96 well plate. After 3 days of incubation, cells were harvested and the luciferase assay was done by a Dual Luciferase reporter assay system (Promega) as recommended by the manufacturer.
as §2

[9] = tested on: SV40-SEAP reporter; test: SV40-SEAP reporter in 293F cells; type: cell-based, human; conditions: for SV40-SEAP, average: Vector (HANLS) = 1
Method: as §1
as §2, with “(CMV-Luc). […].” for “(CMV-Luc).”

F121_p65: ZFP QSHT-RSHR-RDHT-p65 (SEQ ID NO:20)
Norm ratio of medians (ROM) ([1]; FK506-binding protein 8 (38 kD), ID N95418): 8.66 | Norm ratio of medians (ROM) ([1]; Fn14 for type I transmenmbrane protein, ID AI221536): 5.06 | Norm ratio of medians (ROM) ([1]; brain-specific protein p25 alpha, ID AA133959): 5.71 | Norm ratio of medians (ROM) ([1]; cadherin 13, H-cadherin (heart), ID R41787): 7.34 and 5.90 | Norm ratio of medians (ROM) ([1]; cellular retinoic acid-binding protein 2, ID AA598508): 10.30 | Norm ratio of medians (ROM) ([1]; cyclin D1 (PRAD1: parathyroid adenomatosis, ID AA487486)): 5.27 | Norm ratio of medians (ROM) ([1]; cysteine-rich protein 2, ID AA485427): 6.71 | Norm ratio of medians (ROM) ([1]; growth arrest and DNA-damage-inducible, ID AA404666): 5.55 | Norm ratio of medians (ROM) ([1]; insulin-like growth factor 2, ID H59614): 17.71 and 16.88 | Norm ratio of medians (ROM) ([1]; insulin-like growth factor 2, ID N54596): 14.40 | Norm ratio of medians (ROM) ([1]; jun B proto-oncogene, ID N94468): 11.61 | Norm ratio of medians (ROM) ([1]; ketohexokinase (fructokinase), ID T61256): 5.28 | Norm ratio of medians (ROM) ([1]; lymphocyte antigen 6 complex, locus H, ID AI929550): 5.50 | Norm ratio of medians (ROM) ([1]; nuclear factor of activated T-cells, ID AA679278): 9.64 | Norm ratio of medians (ROM) ([1]; protein phosphatase 2, regulatory subunit, ID R59165): 9.89 and 8.60 | Norm ratio of medians (ROM) ([1]; protein tyrosine phosphatase, receptor, ID R45941): 16.45 | Norm ratio of medians (ROM) ([1]; putative gene product, ID H09111): 12.35 | Norm ratio of medians (ROM) ([1]; tumor necrosis factor (ligand) superfamily, ID AI347622): 6.15 | Norm ratio of medians (ROM) ([1]; unnamed (—), ID AA045731): 5.27 | Norm ratio of medians (ROM) ([1]; zinc finger protein homologous to Zfp-36, ID R38383): 6.46

K_D10: ZFP QSHV-WSNR-WSNR-RDNQ with kid repression domain (SEQ ID NO:10)
inhibition of cell growth compared to parental vector [2]: approximately 3 fold | relative cell number, average [2]: 27.4%

P_B08: ZFP QSNR1-DSNR-DSNR with p65 activation domain (SEQ ID NO:8)
Absorbance (405 nm) ([3]; SEAP reporter activity, three days after transfection): 2.40 | SV40-SEAP reporter, average ([3]; Vector (HANLS) = 1): 16.51 | increase of SEAP activity compared to parental plasmid ([3]; retest): approximately 16 fold

Neuro1-p65: chimeric ZFP QSNR1-QSNK-CSNR1 with p65 activation domain (SEQ ID NO:2)
Percentage of neurite bearing cells ([4]; No RA): 42.39 ± 5.56% | Percentage of neurite bearing cells ([4]; RA 10 uM): 41.59 ± 6.46% | neuritogenesis ([4]; cells treated with 10 μM RA): marked acceleration of neuritogenesis | neuritogenesis / differentiation (length and thickness of neurites) ([4]; without RA): most prominent effect on differentiation

Osteo1-p65: four-finger ZFP RDKR-QTHR1-VSTR-RDKR with p65 activation domain (SEQ ID NO:4)
cells with strong ALP staining [5]: about 30%

CC1=C(/C=C/C(C)=C/C=C/C(C)=C/C(=O)O)C(C)(C)CCC1 [RA, retinoic acid, reference compound]
Percentage of neurite bearing cells ([4]; RA 10 uM): 14.93 ± 7.69%

CC(=O)N1CCN(c2ccc(OCC3COC(Cn4ccnc4)(c4ccc(Cl)cc4Cl)O3)cc2)CC1 (stereo not shown) [ketoconazole, Ketoconazole]
ketoconazole concentration that inhibited growth of YPH499a cells [6]: 35 µM

K44_11_G12: ZFP QSHV-VSTR-RDNQ-QTHR1 with kid repression domain (SEQ ID NO:16)
increase of SEAP activity compared to parental plasmid (vector) [7]: approximately 3 fold | CMV-SEAP, average [7]: 2.82 | activation of CMV-luciferase [8]: 2-3 fold | CMV-Luc, average [8]: 2.75 | activation of SV40-SEAP [9]: 2-3 fold | SV40-SEAP, average [9]: 2.14

K44_11_D01: ZFP QSHV-QSNI-QTHR1-CSNR1 with kid repression domain (SEQ ID NO:14)
increase of SEAP activity compared to parental plasmid (vector) [7]: approximately 3 fold | CMV-SEAP, average [7]: 3.49 | activation of CMV-Luciferase (in words) [8]: not the CMV-Luciferase | CMV-Luc, average [8]: 0.87 | activation of SV40-SEAP (in words) [9]: showed activation of SV40-SEAP | SV40-SEAP, average [9]: 3.66

K_F02: ZFP DSAR2-RDKR-RDER1-QTHR1 with kid repression domain (SEQ ID NO:12)
activation of cell growth compared to the control [2]: 2.7 fold | relative cell number, average [2]: 279.3%
